Earlier results as cited in patent US7612172B2, “Nucleic acids and corresponding proteins entitled 282P1G3 useful in treatment and detection of cancer” (Agensys, Inc., priority 2002, dated 2009).

Tests used:
[1] = tested on: LAGE-I tumor specific gene; details: lymphoblastoid cells
[2] = tested on: HLA-DR alleles
[3] = tested on: T helper lymphocytes; details: regardless of HLA type

Molecule | expression of the LAGE-I tumor specific gene [1] | binding to HLA-DR alleles [2] | stimulation of T helper lymphocyte response [3]
Nc1ncn([C@H]2C[C@H](O)[C@@H](CO)O2)c(=O)n1 [deoxy-azacytidine] | induced |  | 
aKXVAAWTLKAa |  | bind to most HLA-DR alleles | stimulate the response of T helper lymphocytes from most individuals
